Test results from patent US20180217128A1, “METHOD FOR MEASURING IN VIVO INHIBITION OF INTRACELLULAR RNASE” (NATIONAL INSTITUTE OF ADVANCED INDUSTRIAL SCIENCE AND …, priority 2015, published 2018).
One block for each molecule: values may come before it.

Columns and labels:
[1] = target: T1, Ribonuclease (DNase free) Solution (ribonuclease; RNase) (Bos taurus, UniProt P61823); test: Degradation of the fluorescently labeled double-stranded RNA (FRET probe) by ribonuclease, cell-free; assay type: biochemical; set-up: purchased Nippon Gene; details: 200 nM double-stranded RNA in Opti-MEM, 0.4 mg/ml RNase, room temperature 1 hour, vs no RNase, n=3
T1 sequence (P61823 27-150): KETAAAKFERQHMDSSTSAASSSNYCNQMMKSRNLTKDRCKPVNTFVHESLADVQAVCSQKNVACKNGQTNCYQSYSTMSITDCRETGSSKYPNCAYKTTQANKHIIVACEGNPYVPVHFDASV
Text: First, FRET-Alexa-RNA: 5′-(Alexa Flour 488)-[…]-3′ (SEQ ID NO: 1) as a reporter strand, and FRET-BHQ1-RNA: (5′-[…]-(BHQ1)-3′ (SEQ ID NO:2) as a quencher strand were provided. The base at the 5′ end of the reporter strand is labeled with Alexa Flour 488 through a C6 linker, and the base at the 3′ end of the quencher strand is labeled with BHQ1 (Black Hole Quencher 1) without use of a linker (FIG. 2).
The reporter strand and the quencher strand were mixed at a ratio of 1:2 (molar ratio) in a solution of 50 mM HEPES, 500 mM KCl, and 25 mM MgCl2, and the resulting solution was incubated at 99° C. for 5 minutes, at 65° C. for 30 minutes, and then at 25° C. for 30 minutes to prepare a double-stranded RNA.
The experiment was carried out for n=3.

HEK 293 cells = details: hydrogen peroxide 0.01, 1 or 100 μM, measured at Hour 2, 4, 6, 8, n=3
Procedure: The viable cell count was determined by the absorbance using a Cell Counting Kit-8 (Dojindo).
The cell systems at Hour 2, 4, 6, and 8 were subjected to measurement of the absorbance at 450 nm using a Cell Counting Kit-8 (Dojindo) and a Microplate Reader SH-9000 (Corona Electric) to determine the viable cell count. The experiment was carried out for n=3.

[2] = target: T1, Ribonuclease (DNase free) Solution (ribonuclease; RNase); details: 100 μM hydrogen peroxide
Procedure: In this experiment, how hydrogen peroxide influences the fluorescently labeled double-stranded RNA and a Ribonuclease (DNase free) Solution (ribonuclease; RNase) (Nippon Gene) was investigated.
A reaction liquid containing 200 nM double-stranded RNA in Opti-MEM (Life Technologies) (50 μL) was provided, and fluorescence was measured at 519 nm with excitation at 488 nm using a Microplate Reader SH-9000 (Corona Electric) (the result at Hour 0). Thereafter, systems in each of which hydrogen peroxide was added at 0 or 100 μM, and Ribonuclease (DNase free) Solution (ribonuclease; RNase) (Nippon Gene) was added at 0 or 0.4 mg/ml, were provided, and each system was incubated at room temperature for 1, 2, or 4 hours, followed by measurement of fluorescence at 519 nm with excitation at 488 nm using a Microplate Reader SH-9000 (the result at Hour 1, 2, or 4). The experiment was carried out for n=3.
The result obtained by dividing the fluorescence value at Hour 1, 2, or 4 by the fluorescence value at Hour 0 is shown in FIG. 4.

[3] = system: intracellular ribonuclease in HEK 293 cells; test: Evaluation of harmfulness to cells using fluorescently labeled double-stranded RNA (intracellular RNA degradation, FRET fluorescence); details: Mercury II Chrolide 100 ng/ml
Text: That is, the present inventors designed and prepared a double-stranded RNA comprising an RNA strand labeled with a fluorescent dye A that emits fluorescence, and an RNA strand labeled with a fluorescent dye B that quenches emission from a fluorescent dye in the vicinity thereof. When the double-stranded RNA is in a double-stranded state, the fluorescence is in a quenched state due to occurrence of fluorescence resonance energy transfer (FRET) (Non-patent Document 4) between the two kinds of fluorescent dyes.
[…] After mixing, each reaction liquid was incubated at room temperature for 20 minutes, and then added to HEK 293 cells (2×10^5 cells/ml in 96 well plate), which are human cells. From Hour 0 to Hour 8, fluorescence was measured at 519 nm with excitation at 488 nm using a Microplate Reader SH-9000 (Corona Electric) at one-hour intervals. The experiment was carried out for n=3.
The result obtained by dividing the fluorescence values at Hours 1 to 8 by the fluorescence value at Hour 0 is shown in FIG. 5.
As reaction liquids, systems each containing 50 μL of Opti-MEM (Life Technologies), 1 μL of Lipofectamine 2000 (Life Technologies), 200 nM double-stranded RNA (the same RNA as in Example 1), and 0 ng/ml, 1 ng/ml, 100 ng/ml, or 100 μg/ml Cisplatin (Wako) were provided. […]

Molecule: fluorescently labeled double-stranded RNA: Double-stranded RNA of FRET-Alexa-RNA reporter strand (SEQ ID NO: 1, Alexa Flour 488) and FRET-BHQ1-RNA quencher strand (SEQ ID NO: 2) (sense CAUAAUCCACCUCCCACUAUUCC; antisense GGAAUAGUGGGAGGUGGAUUAUG; RNA, backbone not given here; Alexa Fluor 488 on reporter, BHQ1 on quencher)
fluorescence intensity (fluorescence value at Hour 1 divided by value at Hour 0) on addition of RNase [1]: obviously increased

time at which a decrease in the absorbance (relative to 0 μM taken as 1) was first found (HEK 293 cells): 8 h
fluorescence value (Hour 1, 2 or 4 divided by Hour 0) of system with RNase, compared with RNase system ([2]; 200 nM double-stranded RNA, 0.4 mg/ml RNase, room temperature, n=3): almost the same
fluorescence value (Hour 1, 2 or 4 divided by Hour 0) of system without RNase, vs system with neither RNase nor hydrogen peroxide ([2]; 200 nM double-stranded RNA, no RNase, room temperature, n=3): almost the same
Molecule: OO [hydrogen peroxide]
influence on fluorescence value of the RNA FRET Probe and on RNase activity (cell-free) ([2]; cell-free, 1-4 hours): influences neither the fluorescence value of the RNA FRET Probe nor the RNase activity

Molecule: [Cl][Hg][Cl] [Mercury II Chrolide]
concentration dependence of the suppression of the fluorescence increase ([3]; 10 μg/ml or 1 mg/ml): dependent on the Mercury II Chrolide concentration
increase in the fluorescence value with time (Hours 1 to 8 divided by Hour 0) ([3]; 10 μg/ml or 1 mg/ml vs 0 ng/ml, Hour 0 to 8, n=3): suppressed
